One assay has as its target T1, human DP1 receptor (Homo sapiens, UniProt Q13258).
T1 construct: tissue Biological Specialty Corporation; host or cells: human platelet membranes
T1 sequence (Q13258 1-359): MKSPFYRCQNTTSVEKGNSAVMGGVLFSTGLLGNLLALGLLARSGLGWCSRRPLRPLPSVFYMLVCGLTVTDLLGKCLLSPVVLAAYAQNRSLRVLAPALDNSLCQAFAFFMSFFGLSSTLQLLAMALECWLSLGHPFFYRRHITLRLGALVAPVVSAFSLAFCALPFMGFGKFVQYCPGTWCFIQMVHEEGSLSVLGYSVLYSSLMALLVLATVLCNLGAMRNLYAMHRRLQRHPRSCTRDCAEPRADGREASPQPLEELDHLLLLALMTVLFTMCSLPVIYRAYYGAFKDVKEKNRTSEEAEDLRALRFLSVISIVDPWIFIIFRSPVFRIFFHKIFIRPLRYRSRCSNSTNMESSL
As to the kind of experiment: DP1 radioligand binding assay ([3H]BWA868C, platelet membranes). Conditions: [3H]BWA868C binding, human platelet membranes; read-out: hDP1. Put shortly:
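Human platelet membranes (20 μg protein/well) incubated 60 min at room temperature with 2 nM [3H]BWA868C and compound in 50 mM Hepes, 10 mM MnCl2, 1 mM EDTA, pH 7.4, ± 0.2% human serum albumin. Bound radioactivity measured after filtration; nonspecific binding defined with 10 μM BWA868C; IC50 from titration curves.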

In assay [1] the target is T2, recombinant human CRTH2 receptor (Homo sapiens, UniProt Q9Y5Y4).
T2 construct: expressed in transfected cells
T2 sequence (Q9Y5Y4 1-395): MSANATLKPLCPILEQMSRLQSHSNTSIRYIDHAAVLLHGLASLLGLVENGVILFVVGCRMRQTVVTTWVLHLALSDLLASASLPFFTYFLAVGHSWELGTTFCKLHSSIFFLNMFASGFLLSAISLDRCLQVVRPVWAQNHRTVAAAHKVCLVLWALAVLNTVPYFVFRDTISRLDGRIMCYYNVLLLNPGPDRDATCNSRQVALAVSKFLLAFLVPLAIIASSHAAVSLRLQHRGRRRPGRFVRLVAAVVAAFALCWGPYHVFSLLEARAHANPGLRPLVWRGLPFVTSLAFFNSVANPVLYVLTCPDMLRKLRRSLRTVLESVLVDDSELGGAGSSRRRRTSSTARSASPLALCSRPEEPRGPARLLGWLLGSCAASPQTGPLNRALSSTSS
As to the kind of experiment: GTPγS binding assay. Format: biochemical. Conditions: +HSA (0.2% human serum albumin), 80 nM PGD2, CHO cell membranes; read-out: hDP2 GTPγS μM (+HSA). As to the method:
The ability of a compound to inhibit binding of GTP to DP2 is assessed via a membrane GTPγS assay. CHO cells stably expressing the recombinant human CRTH2 receptor are resuspended in 10 mM Hepes, 7.4 containing 1 mM DTT, lysed and centrifuged at 75,000×g to pellet the membranes. The membranes are resuspended in 10 mM Hepes, 7.4 containing 1 mM DTT and 10% glycerol. […] The reactions are terminated by rapid filtration through Whatman GF/B glass fibre filter plates. The filter plates are washed 3 times with 1 ml cold Assay Buffer and dried. Scintillant is then added to the plates and the radioactivity retained on the filters is determined on a Packard TopCount (Perkin Elmer). Specific binding is determined as total radioactive binding minus non-specific binding in the absence of the ligand (80 nM PGD2). IC50s were determined using Graphpad prism analysis of drug titration curves.

In the next assay the target is T3, human DP2 receptor (Homo sapiens, UniProt Q9Y5Y4).
T3 construct: expressed in transfected cells
T3 sequence (Q9Y5Y4 1-395): T2 sequence (Q9Y5Y4 1-395)
As to the kind of experiment: DP2/CRTH2 radioligand binding assay ([3H]PGD2). The following applies: [3H]PGD2 binding, membranes of HEK293 cells expressing human DP2; read-out: hDP2. In a few lines: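 Membranes from HEK293 cells stably expressing recombinant human DP2 incubated 60 min at room temperature with 1 nM [3H]PGD2 and compound in pH 7.4 Hepes/MnCl2/EDTA buffer, ± 0.2% human serum albumin. Bound radioactivity measured after filtration; non-specific binding defined with 10 μM PGD2. IC50 from titration curves.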

On to `CCN(Cc1cc(C(F)(F)F)ccc1-c1cc(CC(=O)O)ccc1OC)C(=O)NC#N` [Compound 1-99, [2′-(3-Cyano-1-ethyl-ureidomethyl)-6-methoxy-4′-trifluoromethyl-biphenyl-3-yl]-acetic acid], for which the results for the IC50 (at human DP1 receptor; in assay [1]; at human DP2 receptor) were 1000 to 30000 nM, 0.3 to 1 µM and less than 300 nM, respectively.

With `CCN(Cc1cc(C(F)(F)F)ccc1-c1cc(C(C)C(=O)O)ccc1OC)C(=O)OCc1ccccc1` (centres unmarked) [Compound 1-98, 2-{2′-[(Benzyloxycarbonyl-ethyl-amino)-methyl]-6-methoxy-4′-trifluoromethyl-biphenyl-3-yl}-propionic acid], the IC50 at human DP1 receptor is 1000 to 30000 nM; in assay [1], less than 0.3 µM; at human DP2 receptor it was less than 300 nM.

For `CCN(Cc1cc(C(F)(F)F)ccc1-c1cc(CC(=O)O)ccc1OC)C(=O)CSc1ccccc1` [Compound 1-117, (2′-{[Ethyl-(2-phenylsulfanyl-acetyl)-amino]-methyl}-6-methoxy-4′-trifluoromethyl-biphenyl-3-yl)-acetic acid], the IC50 at human DP1 receptor is 1000 to 30000 nM; in assay [1], less than 0.3 µM; at human DP2 receptor, less than 300 nM.

Consider `CCN(Cc1cccc(OC)c1-c1cccc(CC(=O)O)c1)C(=O)OCc1ccccc1` [Compound 1-122, {2′-[(Benzyloxycarbonyl-ethyl-amino)-methyl]-6′-methoxy-biphenyl-3-yl}-acetic acid], for which the IC50 at human DP1 receptor is 300 to 1000 nM; in assay [1], 1 to 30 µM; at human DP2 receptor, less than 300 nM.

Turning to `CCN(Cc1cc(C(F)(F)F)ccc1-c1ccc(F)c(CC(=O)O)c1)C(=O)OCc1ccccc1` [Compound 1-127, {2′-[(Benzyloxycarbonyl-ethyl-amino)-methyl]-4-fluoro-4′-trifluoromethyl-biphenyl-3-yl}-acetic acid], the IC50 was 300 to 1000 nM at human DP1 receptor, less than 0.3 µM in assay [1] and less than 300 nM at human DP2 receptor.

Take `CCN(Cc1cc(C(F)(F)F)ccc1-c1cc(C(C)C(=O)O)ccc1OC)C(=O)NCc1ccccc1` (centres unmarked) [Compound 1-222, 2-[2′-(3-Benzyl-1-ethyl-ureidomethyl)-6-methoxy-4′-trifluoromethyl-biphenyl-3-yl]-propionic acid]: the IC50 was less than 0.3 µM in assay [1] and less than 300 nM on human DP2 receptor.

Regarding `CCN(Cc1cc(-c2cnn(C)c2)ccc1-c1cc(CC(=O)O)ccc1OC)C(=O)NCc1ccccc1` [Compound 1-234, [2′-(3-Benzyl-1-ethyl-ureidomethyl)-6-methoxy-4′-(1-methyl-1H-pyrazol-4-yl)-biphenyl-3-yl]-acetic acid], the IC50 in assay [1] was less than 0.3 µM; on human DP2 receptor it was less than 300 nM.

For the molecule `CCN(Cc1cc(C(F)(F)F)ccc1-c1cc([C@@H](C)C(=O)O)cc(C(F)(F)F)c1)C(=O)C1CC1` [Compound 1-237, (R)-2-{2′-[(Cyclopropanecarbonyl-ethyl-amino)-methyl]-5,4′-bis-trifluoromethyl-biphenyl-3-yl}-propionic acid], the IC50 in assay [1] is less than 0.3 µM; on human DP2 receptor, less than 300 nM.

For `CCN(Cc1cc(C(F)(F)F)ccc1-c1cc([C@@H](C)C(=O)O)ccc1OC)C(=O)C1CC1` [Compound 1-224, (R)-2-{2′-[(Cyclopropanecarbonyl-ethyl-amino)-methyl]-6-methoxy-4′-trifluoromethyl-biphenyl-3-yl}-propionic acid], the IC50 in assay [1] is less than 0.3 µM; at human DP2 receptor, less than 300 nM.

In the case of `CCN(Cc1cc(-c2cnn(C)c2)ccc1-c1cc(CC(=O)O)ccc1OC)C(=O)C1CC1` [Compound 1-233, [2′-[(Cyclopropanecarbonyl-ethyl-amino)-methyl]-6-methoxy-4′-(1-methyl-1H-pyrazol-4-yl)-biphenyl-3-yl]-acetic acid], the values for the IC50 (in assay [1]; at human DP2 receptor) were less than 0.3 µM and less than 300 nM, respectively.

Consider `CCOc1ccc(-c2ccc(-c3cc(CC(=O)O)ccc3OC)c(CN(CC)C(=O)NCc3ccccc3)c2)cn1` [Compound 1-228, [2′-(3-Benzyl-1-ethyl-ureidomethyl)-4′-(6-ethoxy-pyridin-3-yl)-6-methoxy-biphenyl-3-yl]-acetic acid], for which the IC50 in assay [1] was less than 0.3 µM; on human DP2 receptor it was less than 300 nM.

For the molecule `CCN(Cc1cc(C(F)(F)F)ccc1-c1cc(CC#N)ccc1OC)C(=O)C1CC1` [Compound 2-3, Cyclopropanecarboxylic acid (5′-cyanomethyl-2′-methoxy-4-trifluoromethyl-biphenyl-2-ylmethyl)-ethyl-amide], the IC50 on human DP1 receptor is 1000 to 30000 nM; at human DP2 receptor, more than 30000 nM.

As for `CCN(Cc1cc(C(F)(F)F)ccc1-c1cc(Cc2nn[nH]n2)ccc1OC)C(=O)C1CC1` [Compound 2-7, Cyclopropanecarboxylic acid ethyl-[2′-methoxy-5′-(2H-tetrazol-5-ylmethyl)-4-trifluoromethyl-biphenyl-2-ylmethyl]-amide], the IC50 on human DP1 receptor and at human DP2 receptor was 1000 to 30000 nM in each case.

`CCN(Cc1cc(C(F)(F)F)ccc1-c1cc(C(C)(C)C(=O)O)ccc1OC)C(C)=O` [Compound 1-115, 2-{2′-[(Acetyl-ethyl-amino)-methyl]-6-methoxy-4′-trifluoromethyl-biphenyl-3-yl}-2-methyl-propionic acid]: the IC50 is 1000 to 30000 nM on human DP1 receptor and more than 30000 nM at human DP2 receptor.

Regarding `CCN(Cc1cc(C(F)(F)F)ccc1-c1cc(CC(=O)O)cc(C(F)(F)F)c1)C(=O)OC` [Compound 1-163, {2′-[(Ethyl-methoxycarbonyl-amino)-methyl]-5,4′-bis-trifluoromethyl-biphenyl-3-yl}-acetic acid], the IC50 is 1000 to 30000 nM on human DP1 receptor and less than 300 nM on human DP2 receptor.

Regarding `CCN(Cc1cc(C(F)(F)F)ccc1-c1cc(F)cc(CC(=O)O)c1)C(=O)NCc1ccccc1` [Compound 1-159, [2′-(3-Benzyl-1-ethyl-ureidomethyl)-5-fluoro-4′-trifluoromethyl-biphenyl-3-yl]-acetic acid], the IC50 at human DP1 receptor is 1000 to 30000 nM; on human DP2 receptor, less than 300 nM.

Regarding `CCN(Cc1cc(C(F)(F)F)ccc1-c1ccc(C(F)(F)F)c(CC(=O)O)c1)C(=O)OCc1ccccc1` [Compound 1-124, {2′-[(Benzyloxycarbonyl-ethyl-amino)-methyl]-4,4′-bis-trifluoromethyl-biphenyl-3-yl}-acetic acid], the IC50 on human DP1 receptor and on human DP2 receptor was 300 to 1000 nM in each case.

Take `CCN(Cc1cc(C(F)(F)F)ccc1-c1cc(CC(C)(C)O)ccc1OC)C(C)=O` [Compound 2-2, N-Ethyl-N-[5′-(2-hydroxy-2-methyl-propyl)-2′-methoxy-4-trifluoromethyl-biphenyl-2-ylmethyl]-acetamide]: the IC50 on human DP1 receptor and at human DP2 receptor was 1000 to 30000 nM in each case.

In the case of `COc1ccc(CC(=O)O)cc1-c1ccc(C(F)(F)F)cc1CN(C(C)=O)[C@@H](C)[C@H](O)c1ccccc1` [Compound 1-104, (2′-{[Acetyl-((1S,2R)-2-hydroxy-1-methyl-2-phenyl-ethyl)-amino]-methyl}-6-methoxy-4′-trifluoromethyl-biphenyl-3-yl)-acetic acid], the IC50 on human DP1 receptor and at human DP2 receptor was 1000 to 30000 nM in each case.

For `COc1ccc(CC(=O)O)cc1-c1ccc(C(=O)O)cc1CN(CC(F)(F)F)C(C)=O` [Compound 1-37, 2-{[Acetyl-(2,2,2-trifluoro-ethyl)-amino]-methyl}-5′-carboxymethyl-2′-methoxy-biphenyl-4-carboxylic acid], the IC50 on human DP1 receptor and on human DP2 receptor was 1000 to 30000 nM throughout.

Turning to `CCN(Cc1cc(C(F)(F)F)ccc1-c1cc(CC(N)=O)ccc1OC)C(=O)C1CC1` [Compound 2-8, Cyclopropanecarboxylic acid (5′-carbamoylmethyl-2′-methoxy-4-trifluoromethyl-biphenyl-2-ylmethyl)-ethyl-amide], the IC50 at human DP1 receptor and on human DP2 receptor was 1000 to 30000 nM throughout.

Source of the values: US8067445B2, “N,N-disubstituted aminoalkylbiphenyl antagonists of prostaglandin D2 receptors” (Panmira Pharmaceuticals, LLC, priority 2008, dated 2011).
